# Assay results: patent US8232269B2, “Amide compounds useful in therapy” (Pfizer Inc., priority 2008, dated 2012)
# Biological target: T1, Progesterone Receptor (PR) (Homo sapiens, UniProt P06401)
# T1 construct: endogenous in cells; host or cells: T47D human breast mammary carcinoma cells
# T1 sequence (P06401 1-933): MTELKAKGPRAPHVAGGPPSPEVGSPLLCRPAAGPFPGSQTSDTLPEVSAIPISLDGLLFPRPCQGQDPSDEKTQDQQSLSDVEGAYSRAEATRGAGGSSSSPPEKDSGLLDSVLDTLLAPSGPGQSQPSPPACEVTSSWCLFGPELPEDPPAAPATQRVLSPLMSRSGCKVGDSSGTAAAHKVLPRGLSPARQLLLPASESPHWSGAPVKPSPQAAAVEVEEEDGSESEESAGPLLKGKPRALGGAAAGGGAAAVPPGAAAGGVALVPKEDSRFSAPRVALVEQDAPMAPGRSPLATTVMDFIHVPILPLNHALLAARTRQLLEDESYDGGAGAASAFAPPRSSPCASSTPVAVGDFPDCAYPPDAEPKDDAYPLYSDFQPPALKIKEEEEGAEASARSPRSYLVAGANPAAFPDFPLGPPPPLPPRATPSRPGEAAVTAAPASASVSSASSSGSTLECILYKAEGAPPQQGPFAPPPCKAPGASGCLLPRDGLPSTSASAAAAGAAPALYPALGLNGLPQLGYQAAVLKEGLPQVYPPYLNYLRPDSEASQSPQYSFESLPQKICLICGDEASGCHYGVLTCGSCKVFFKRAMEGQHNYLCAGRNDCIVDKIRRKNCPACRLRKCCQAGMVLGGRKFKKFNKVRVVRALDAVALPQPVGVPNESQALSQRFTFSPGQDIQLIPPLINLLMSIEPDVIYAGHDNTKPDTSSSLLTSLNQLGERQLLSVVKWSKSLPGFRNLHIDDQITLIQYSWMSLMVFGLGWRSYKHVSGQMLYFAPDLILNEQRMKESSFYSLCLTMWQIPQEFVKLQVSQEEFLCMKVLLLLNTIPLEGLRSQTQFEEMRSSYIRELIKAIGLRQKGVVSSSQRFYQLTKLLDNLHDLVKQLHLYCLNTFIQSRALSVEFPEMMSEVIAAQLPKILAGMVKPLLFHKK
# Experiment: In vitro functional assay for progesterone receptor (PR) antagonists: inhibition of progesterone-induced alkaline phosphatase expression in T47D cells
# Assay type: cell-based
# Conditions: antagonist format, 5 nM progesterone, Ki calculated from IC50 with the Cheng-Prusoff equation
# From the text: 1.0 In vitro Functional Assay for Progesterone Receptor (PR) Antagonists, Agonists and Modulators
# The assay for PR antagonism takes advantage of the extensively reported modulation of alkaline phosphatase (AP) expression in human breast T47D mammary carcinoma cells {Beck et al., D. P. (1993). The progesterone antagonist RU486 acquires agonist activity upon stimulation of cAMP signalling pathways. Proc Natl Acad Sci USA 90, 4441-4445; Fensome et al. (2002). New progesterone receptor antagonists: 3,3-disubstituted-5-aryloxindoles. Bioorg Med Chem Lett 12, 3487-3490; Zhang et al., (2002a). 6-Aryl-1,4-dihydro-benzo d1,3oxazin-2-ones: a novel class of potent, selective, and orally active nonsteroidal progesterone receptor antagonists. Journal of Medicinal Chemistry 45, 4379-4382; Zhang et al., (2003). Novel 6-aryl-1,4-dihydrobenzo d oxazine-2-thiones as potent, selective, and orally active nonsteroidal progesterone receptor agonists. Bioorganic & Medicinal Chemistry Letters 13, 1313-1316; Zhang et al., (2002b). Potent nonsteroidal progesterone receptor agonists: synthesis and SAR study of 6-aryl benzoxazines. Bioorganic & Medicinal Chemistry Letters 12, 787-790; Zhang, Z. et al., (2000). In vitro characterization of trimegestone: a new potent and selective progestin. Steroids 65, 637-643}. […] In the absence of progesterone any agonist activity is also observed as an induction of AP activity. By running the assay in two formats (+/−progesterone (P4)), compounds behaving as PR antagonists, agonists, partial agonists or modulators with mixed agonist/antagonist activity can be identified.
# Briefly, T47D cells are grown by propagating in DMEM with phenol red+10% FCS+2 mM Glutamine at 37° C./5% CO2. At 70-80% confluence, the media is exchanged for phenol red free DMEM+5% CS-FCS (Assay media). Cells are incubated overnight in assay media then harvested and frozen in assay media containing 10% DMSO at 1.5e7 cells/mL in 2 mL aliquots using a Planer and immediately stored in liquid nitrogen. Vials are removed from liquid nitrogen storage and immediately thawed in a water bath at 37° C. The cell suspension is added dropwise to 20 mL of assay media, then the tube centrifuged at 1000 rpm for 4 minutes, the supernatant is discarded and the pellet re-suspended in 20 mL assay media. T47D cells are then plated at 8750 cells/well in 35 μL assay media in sufficient white solid 384 well TC plates for the assay. For the agonist format assay a further 10 μL of assay media is added to each well. These plates are then cultured for 3-6 hours at 37° C./5% CO2 before compound addition.
# Test substances are prepared by in 100% DMSO, half log concentrations from 4 mM in 384 well plates 5 μL/well (referred to here as ‘grandmother plates’). Progesterone is 100 μM made up in ethanol and PBS (i.e. add 1 mL ethanol to progesterone initially to help dissolving) and stored in 0.5-1 mL aliquots at −20° C.
# Using a multidrop (Thermolabsystems), 60 μL/well of buffer is added to a 384 well plate—this will be the ‘mother plate’. _Add 45 μL well buffer to grandmother plate using the multidrop (=400 μM 10% DMSO dilution). Mixed and spun to remove air bubbles. • 20 μL is taken from the grandmother plate (400 μM 10% DMSO) and added to the mother plate (=100 μM 2.5% DMSO). Mixed and spun to remove air bubbles Preparation of Max/Min:
# Antagonist Min: (Checker Pattern on Plate Map) 1 μM RU-486 (FAC 0.1 μM) • 50 μL of 0.2 mM RU-486 • 10 mL Diluent Addition of Test Substance to Cell Plates • The PlateMate Plus was used to add 5 μL MAX/MIN to cell plates • Then 5 μL test substances are added from the mother plate (after removing max/min PlateMate tips: columns 1 and 24)
# Addition of Agonist (5 nM Progesterone FAC) for Antagonist Format Only
# 25 nM progesterone in assay media is prepared from 100 μM stock (12.5 μL progesterone/50 mL media), from which 10 μL per well is transferred to the assay plate using the PlateMate Plus (already containing cells & compound). […]
row,Ki,Compound
1,71.6 nM,"Cc1c(-c2ccc(C#N)cc2)nn(C2CCOC2)c1C(=O)NC[C@H](C)O (mixture of isomers) [Example 78, 3-(4-Cyanophenyl)-N-[(2S)-2-hydroxypropyl]-4-methyl-1-(tetrahydrofuran-3-yl)-1H-pyrazole-5-carboxamide]"
2,63 nM,"CCc1c(-c2ccc(C#N)cc2)nn(C(C)CC)c1C(=O)NC[C@@H](C)O (mixture of isomers) [Example 107, 1-sec-Butyl-3-(4-cyanophenyl)-4-ethyl-N-[(2R)-2-hydroxypropyl]-1H-pyrazole-5-carboxamide]"
3,12 nM,"CC(C)n1nc(-c2ccc(C#N)cc2)c(C2CC2)c1C(=O)NCC1CCCO1 (racemic) [Example 36, (+/−)-3-(4-Cyanophenyl)-4-cyclopropyl-1-isopropyl-N-(tetrahydrofuran-2-ylmethyl)-1H-pyrazole-5-carboxamide]"
4,17.8 nM,CC(NC(=O)c1c(C2CC2)c(-c2ccc(C#N)cc2)nn1C(C)C)c1cnn(C)c1 (racemic) [Example 39]
5,17.5 nM,"CC(C)n1nc(-c2ccc(C#N)cc2)c(C2CC2)c1C(=O)NC1CCCOC1 (racemic) [Example 40, (+/−)-3-(4-Cyanophenyl)-4-cyclopropyl-1-isopropyl-N-(tetrahydro-2H-pyran-3-yl)-1H-pyrazole-5-carboxamide]"
6,25 nM,"CC(C)n1nc(-c2ccc(C#N)cc2)c(C2CC2)c1C(=O)NC1CCC(=O)N(C)C1 (racemic) [Example 41, (+/−)-3-(4-Cyanophenyl)-4-cyclopropyl-1-isopropyl-N-(1-methyl-6-oxopiperidin-3-yl)-1H-pyrazole-5-carboxamide]"
7,40.8 nM,"CC(Cn1cccn1)NC(=O)c1c(C2CC2)c(-c2ccc(C#N)cc2)nn1C(C)C (racemic) [Example 44, (+/−)-3-(4-Cyanophenyl)-4-cyclopropyl-1-isopropyl-N-[1-methyl-2-(1H-pyrazol-1-yl)ethyl]-1H-pyrazole-5-carboxamide]"
8,104 nM,"CC(C)n1nc(-c2ccc(C#N)cc2)c(C2CC2)c1C(=O)NC1CNC(=O)C1 (racemic) [Example 45, (+/−)-3-(4-Cyanophenyl)-4-cyclopropyl-1-isopropyl-N-[(3R)-5-oxopyrrolidin-3-yl]-1H-pyrazole-5-carboxamide]"
9,7.43 nM,"CC(C)n1nc(-c2ccc(C#N)cc2)c(C2CC2)c1C(=O)NC1CCS(=O)(=O)C1 (racemic) [Example 57, (+/−)-3-(4-Cyanophenyl)-4-cyclopropyl-N-(1,1-dioxidotetrahydro-3-thienyl)-1-isopropyl-1H-pyrazole-5-carboxamide]"
10,26.9 nM,"CCNC(=O)c1c(C)c(-c2ccc(C#N)cc2)nn1C1CCOC1 (racemic) [Example 76, 3-(4-Cyanophenyl)-N-ethyl-4-methyl-1-(tetrahydrofuran-3-yl)-1H-pyrazole-5-carboxamide]"
11,28.2 nM,"Cc1c(-c2ccc(C#N)cc2)nn(C2CCOC2)c1C(=O)NC(C)C (racemic) [Example 77, 3-(4-Cyanophenyl)-N-isopropyl-4-methyl-1-(tetrahydrofuran-3-yl)-1H-pyrazole-5-carboxamide]"
12,138 nM,"Cc1c(-c2ccc(C#N)cc2)nn(C2CCOC2)c1C(=O)NCC(C)(C)O (racemic) [Example 80, 3-(4-Cyanophenyl)-N-(2-hydroxy-2-methylpropyl)-4-methyl-1-(tetrahydrofuran-3-yl)-1H-pyrazole-5-carboxamide]"
13,7.67 nM,"CCc1c(-c2ccc(C#N)cc2)nn(C(C)CC)c1C(=O)NCC1CC1 (racemic) [Example 101, (+/−)-1-sec-Butyl-3-(4-cyanophenyl)-N-(cyclopropylmethyl)-4-ethyl-1H-pyrazole-5-carboxamide]"
14,14.7 nM,"CCc1c(-c2ccc(C#N)cc2)nn(C(C)CC)c1C(=O)NC(C)C (racemic) [Example 102, (+/−)-1-sec-Butyl-3-(4-cyanophenyl)-4-ethyl-N-isopropyl-1H-pyrazole-5-carboxamide]"
15,12.7 nM,"CCNC(=O)c1c(CC)c(-c2ccc(C#N)cc2)nn1C(C)CC (racemic) [Example 103, (+/−)-1-sec-Butyl-3-(4-cyanophenyl)-N,4-diethyl-1H-pyrazole-5-carboxamide]"
16,17.8 nM,"CCc1c(-c2ccc(C#N)cc2)nn(C(C)CC)c1C(=O)NC1CC1 (racemic) [Example 104, (+/−)-1-sec-Butyl-3-(4-cyanophenyl)-N-cyclopropyl-4-ethyl-1H-pyrazole-5-carboxamide]"
17,14.2 nM,"CCc1c(-c2ccc(C#N)cc2)nn(C(C)CC)c1C(=O)NC (racemic) [Example 105, (+/−)-1-sec-Butyl-3-(4-cyanophenyl)-4-ethyl-N-methyl-1H-pyrazole-5-carboxamide]"
18,23.8 nM,"CCc1c(-c2ccc(C#N)cc2)nn(C(C)CC)c1C(=O)NCC(C)(C)O (racemic) [Example 106, 1-sec-Butyl-3-(4-cyanophenyl)-4-ethyl-N-(2-hydroxy-2-methylpropyl)-1H-pyrazole-5-carboxamide]"
19,199 nM,"CCc1c(-c2ccc(C#N)cc2)nn(C(C)CC)c1C(=O)NCC(=O)NC (racemic) [Example 109, 1-sec-Butyl-3-(4-cyanophenyl)-4-ethyl-N-[2-(methylamino)-2-oxoethyl]-1H-pyrazole-5-carboxamide]"
20,22.3 nM,"CCNC(=O)c1c(C)c(-c2ccc(C#N)cc2)nn1C1CCOC1 (single isomer, unassigned) [Example 76 Ent 1, 3-(4-Cyanophenyl)-N-ethyl-4-methyl-1-(tetrahydrofuran-3-yl)-1H-pyrazole-5-carboxamide]"
21,147 nM,"CCNC(=O)c1c(C)c(-c2ccc(C#N)cc2)nn1C1CCOC1 (single isomer, unassigned) [Example 76 Ent 2, 3-(4-Cyanophenyl)-N-ethyl-4-methyl-1-(tetrahydrofuran-3-yl)-1H-pyrazole-5-carboxamide]"
